# Values of other authors in patent US8252791B2, “Purine compounds as cannabinoid receptor blockers” (Jenrin Discovery, Inc., priority 2008, dated 2012).
# Details: patients with type 2 diabetes not treated with other anti-diabetic medications; after six months of treatment; baseline value 7.9; placebo group 0.3%
structure (smiles),measurement,value
Cc1c(C(=O)NN2CCCCC2)nn(-c2ccc(Cl)cc2Cl)c1-c1ccc(Cl)cc1 [rimonabant],HbA1c levels lowered,0.8%
